System: 967376-340-R-J2-PDC multicell spheroid viability
Assay: Anticancer human tumor 967376-340-R-J2-PDC patient-derived colon adenocarcinoma cell line growth inhibition [PI3K]
Conditions: for IC50: curve of first compound; for viability, T/C: stronger effect = lower value; active means viability on the fitted dose curve at most 10% of control; inactive means the rest
From the text: Combinatorial screen of targeted agents with the PI3K inhibitors inavolisib, alpelisib, duvelisib, and copanlisib in multi-cell type tumor spheroids
A high-throughput screen of multi-cell type tumor spheroids was designed to identify active combinations of targeted small molecules and PI3K pathway inhibitors. Complex spheroids include a stromal component modeled by human endothelial cells (HUVEC) and fibroblasts modeled by human mesenchymal stem cells (MSCs). The concentration ranges selected for each drug and investigational agent were based upon clinically achievable concentrations if the clinical Cmax of the agent was known.
Compounds. The drugs and investigational agents: inavolisib (NSC800729), alpelisib (NSC765974), duvelisib (NSC772469), copanlisib (NSC816437), ipatasertib (NSC767898), afuresertib (NSC778305), talazoparib (NSC767125), sapanisertib (NSC764658), selumetinib (NSC741078), tovorafenib (DAY101, NSC766906), vemurafenib (NSC761431), ravoxertinib (NSC781343), sotorasib (NSC818433), MRTX1133 (NSC 836407), abemaciclib (NSC 768073), palbociclib (NSC758247), venetoclax (NSC 766270), SY5609 (NSC837396), enzalutamide (NSC755605), and darolutamide (NSC825331), were obtained from the National Cancer Institute (NCI) Developmental Therapeutics Program Chemical Repository. The FDA-approved anticancer drug set is available from the NCI Developmental Therapeutics Program. […] The stock solutions were prepared in dimethyl sulfoxide (DMSO, Sigma-Aldrich, St. Louis, MO, cat. D2650) at 800-fold the tested concentration and stored at -70 degrees C prior to their use. All drugs and investigational agents were tested over a range starting from a high concentration at or near the clinical Cmax and decreasing in half-log increments. If the clinical Cmax for an agent had not been determined, the highest concentration tested was 10 microM.
Cell Culture. All cells were maintained in an incubator at 37 degrees C and 5% CO2 with 95% humidity. The PDC lines were cultured according to standard operating procedures established by the NCI PDMR (https://pdmr.cancer.gov/sops/default.htm). All PDCs were thawed and cultured in Matrigel-coated flasks prepared with a working solution of 1X Ham's F-12 nutrient mix, without supplementation (Invitrogen, Waltham, MA, cat. 11765054), 100 U/mL penicillin-streptomycin (Invitrogen, cat. 15140122), and 2.5% Matrigel (Corning Inc., Corning, NY, cat. 354248) for the first three passages. The 354836-022-R-J1-PDC, 475296-252-R-J1-PDC, and 997726-040-R-J2-PDC lines were cultured in 6A media, which includes advanced DMEM/F-12 (Thermo Fisher Scientific, cat. 12634028), 10 mM HEPES (Thermo Fisher Scientific, cat. 15630080), 1X GlutaMAX supplement (Thermo Fisher Scientific, cat. 35050061), 0.1 mg/mL primocin (InvivoGen, San Diego, CA, cat. ant-pm-2), 10% defined fetal bovine serum, heat inactivated (HyClone Laboratories Inc., Logan, UT, cat. SH30070.03HI), 50% L-WRN conditioned media (ATCC, cat. CRL-3276), 1.25 mM N-Acetyl-L-cysteine (Sigma-Aldrich, cat. A9165), 10 mM nicotinamide (Sigma-Aldrich, cat. N0636), 1X B-27 supplement (Thermo Fisher Scientific, cat. 17504044), 1X N-2 supplement (Thermo Fisher Scientific, cat. 17502048), and 10 microM Y-27632 dihydrochloride (Tocris Bioscience, Bristol, United Kingdom, cat. 1254). The 624824-186-R-J2-PDC line was cultured in 6C/Colon 1B media, which includes all 6A media components plus 50 ng/mL human EGF recombinant protein (Thermo Fisher Scientific, cat. PHG0311). […]
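Further: spheroids exposed to agents for 7 days before read-out.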
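Wherever viability, T/C is given: luminescence used as surrogate of cell viability.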

CNC(=O)c1ccc(N2C(=S)N(c3ccc(C#N)c(C(F)(F)F)c3)C(=O)C2(C)C)cc1F + CC(Nc1ccc2c(c1)OCCn1cc(N3C(=O)OCC3C(F)F)nc1-2)C(N)=O
> 10000 nM: IC50 (second compound 0.00316 µM) | IC50 (second compound 0.01 µM) | IC50 (second compound 0.0316 µM) | IC50 (second compound 0.1 µM) | IC50 (second compound 0.316 µM) | IC50 (second compound 1 µM)
inactive: viability, T/C (second compound 0.00316 µM, first compound 0.0316 µM) 90.3% | viability, T/C (second compound 0.00316 µM, first compound 0.1 µM) 107% | viability, T/C (second compound 0.00316 µM, first compound 0.316 µM) 93.1% | viability, T/C (second compound 0.00316 µM, first compound 1 µM) 93.2% | viability, T/C (second compound 0.00316 µM, first compound 3.16 µM) 112% | viability, T/C (second compound 0.00316 µM, first compound 10 µM) 161% | viability, T/C (second compound 0.01 µM, first compound 0.0316 µM) 102% | viability, T/C (second compound 0.01 µM, first compound 0.1 µM) 97.8% | viability, T/C (second compound 0.01 µM, first compound 0.316 µM) 94.3% | viability, T/C (second compound 0.01 µM, first compound 1 µM) 89.5% | viability, T/C (second compound 0.01 µM, first compound 3.16 µM) 106% | viability, T/C (second compound 0.01 µM, first compound 10 µM) 136% | viability, T/C (second compound 0.0316 µM, first compound 0.0316 µM) 83.1% | viability, T/C (second compound 0.0316 µM, first compound 0.1 µM) 107% | viability, T/C (second compound 0.0316 µM, first compound 0.316 µM) 94.1% | viability, T/C (second compound 0.0316 µM, first compound 1 µM) 76.7% | viability, T/C (second compound 0.0316 µM, first compound 3.16 µM) 100% | viability, T/C (second compound 0.0316 µM, first compound 10 µM) 99.5% | viability, T/C (second compound 0.1 µM, first compound 0.0316 µM) 72.4% | viability, T/C (second compound 0.1 µM, first compound 0.1 µM) 73.1% | viability, T/C (second compound 0.1 µM, first compound 0.316 µM) 73.5% | viability, T/C (second compound 0.1 µM, first compound 1 µM) 81.1% | viability, T/C (second compound 0.1 µM, first compound 3.16 µM) 77.4% | viability, T/C (second compound 0.1 µM, first compound 10 µM) 81% | viability, T/C (second compound 0.316 µM, first compound 0.0316 µM) 60.4% | viability, T/C (second compound 0.316 µM, first compound 0.1 µM) 60.6% | viability, T/C (second compound 0.316 µM, first compound 0.316 µM) 72.5% | viability, T/C (second compound 0.316 µM, first compound 1 µM) 66.5% | viability, T/C (second compound 0.316 µM, first compound 3.16 µM) 62.1% | viability, T/C (second compound 0.316 µM, first compound 10 µM) 67.5% | viability, T/C (second compound 1 µM, first compound 0.0316 µM) 57.3% | viability, T/C (second compound 1 µM, first compound 0.1 µM) 66% | viability, T/C (second compound 1 µM, first compound 0.316 µM) 62.7% | viability, T/C (second compound 1 µM, first compound 1 µM) 60.8% | viability, T/C (second compound 1 µM, first compound 3.16 µM) 61.6% | viability, T/C (second compound 1 µM, first compound 10 µM) 67.5%

Cn1cnc2c(F)c(Nc3ccc(Br)cc3Cl)c(C(=O)NOCCO)cc21 + CC(Nc1ccc2c(c1)OCCn1cc(N3C(=O)OCC3C(F)F)nc1-2)C(N)=O
inactive: viability, T/C (second compound 0.00316 µM, first compound 0.00949 µM) 91.2% | viability, T/C (second compound 0.00316 µM, first compound 0.03 µM) 92.1% | viability, T/C (second compound 0.00316 µM, first compound 0.0949 µM) 92.5% | viability, T/C (second compound 0.00316 µM, first compound 0.3 µM) 67.9% | viability, T/C (second compound 0.00316 µM, first compound 0.949 µM) 50.5% | viability, T/C (second compound 0.00316 µM, first compound 3 µM) 22.7% | viability, T/C (second compound 0.01 µM, first compound 0.00949 µM) 96% | viability, T/C (second compound 0.01 µM, first compound 0.03 µM) 94% | viability, T/C (second compound 0.01 µM, first compound 0.0949 µM) 82.2% | viability, T/C (second compound 0.01 µM, first compound 0.3 µM) 72.2% | viability, T/C (second compound 0.01 µM, first compound 0.949 µM) 30.3% | viability, T/C (second compound 0.01 µM, first compound 3 µM) 31.6% | viability, T/C (second compound 0.0316 µM, first compound 0.00949 µM) 81.8% | viability, T/C (second compound 0.0316 µM, first compound 0.03 µM) 83.2% | viability, T/C (second compound 0.0316 µM, first compound 0.0949 µM) 58.3% | viability, T/C (second compound 0.0316 µM, first compound 0.3 µM) 55.5% | viability, T/C (second compound 0.0316 µM, first compound 0.949 µM) 46.6% | viability, T/C (second compound 0.0316 µM, first compound 3 µM) 20.1% | viability, T/C (second compound 0.1 µM, first compound 0.00949 µM) 66.2% | viability, T/C (second compound 0.1 µM, first compound 0.03 µM) 70.8% | viability, T/C (second compound 0.1 µM, first compound 0.0949 µM) 67.8% | viability, T/C (second compound 0.1 µM, first compound 0.3 µM) 49.5% | viability, T/C (second compound 0.1 µM, first compound 0.949 µM) 18.7% | viability, T/C (second compound 0.316 µM, first compound 0.00949 µM) 48.2% | viability, T/C (second compound 0.316 µM, first compound 0.03 µM) 52.4% | viability, T/C (second compound 0.316 µM, first compound 0.0949 µM) 44.1% | viability, T/C (second compound 0.316 µM, first compound 0.3 µM) 27.8% | viability, T/C (second compound 0.316 µM, first compound 0.949 µM) 23.7% | viability, T/C (second compound 1 µM, first compound 0.00949 µM) 45.7% | viability, T/C (second compound 1 µM, first compound 0.03 µM) 51% | viability, T/C (second compound 1 µM, first compound 0.0949 µM) 31.3% | viability, T/C (second compound 1 µM, first compound 0.3 µM) 24.6% | viability, T/C (second compound 1 µM, first compound 0.949 µM) 9.79%
active: viability, T/C (second compound 0.1 µM, first compound 3 µM) 8.2% | viability, T/C (second compound 0.316 µM, first compound 3 µM) 6.33% | viability, T/C (second compound 1 µM, first compound 3 µM) 4.86%
15.7 nM: IC50 (second compound 0.316 µM)
870 nM: IC50 (second compound 0.00316 µM)
< 9.49 nM: IC50 (second compound 1 µM)
301 nM: IC50 (second compound 0.1 µM)
564 nM: IC50 (second compound 0.01 µM)
461 nM: IC50 (second compound 0.0316 µM)

— PubChem BioAssay AID1963962 (Molecular Pharmacology Branch, DTP, NCI, 2024)
